Among the data in patent publication US9982005B2, “Macrolides and methods of their preparation and use” (President and Fellows of Harvard College, priority 2013, dated 2018) are MIC values, retold here.

Converted amounts (≈) assume the structure as drawn. Like-named read-outs stand apart in the source and are kept apart here. Where only a bound is given, the exact number is not on record here.

Common to all, as to type: cell-based
The test system of assay [1] is SA1707 S. aureus ermA negative msrA positive. Nature of the assay: broth dilution MIC, S. aureus SA1707. As to conditions: Staphylococcus aureus. The text has this: (§1) We have collected MIC data for a total of 50 novel macrolides that this platform has produced against over 21 unique strains of B. subtilis, E. coli, S. aureus, S. pneumoniae, and H. influenzae, including several multidrug-resistant strains, with a special focus on macrolide resistant mechanisms (vide supra). Azithromycin was included as a control macrolide. CLSI standard procedures for broth dilution MIC determination were used. […] These genotypes can be constitutive or inducible. The finding that C4-epi (unnatural) isomers of the “azaketolide” macrolide class have enhanced activities relative to C4 natural isomers is very exciting.
For orientation: In broth dilution the organism is exposed to a series of concentrations in liquid medium.

Assay [2] concerns SA101 S. aureus ATCC29213. Nature of the assay: broth dilution MIC, S. aureus SA101. As to conditions: Staphylococcus aureus, ATCC29213, SA101 S. aureus ATCC29213; read-out: MIC. A digest of the protocol: (§2)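 An azithromycin control accompanied the test macrolides, which were assayed by CLSI-standard broth microdilution-type MIC determination. Some strains carry constitutive or inducible macrolide-resistance genotypes.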

Assay [3] deals with SA418 S. aureus ermA negative msrA positive. Kind of assay: broth dilution MIC, S. aureus SA418. As to conditions: Staphylococcus aureus.
Description: as §1

The subject of assay [4] is BS1723 B. subtilis BS168 WT wild type. Nature of the assay: broth dilution MIC, B. subtilis BS1723. As to conditions: Bacillus subtilis, BS1723 B. subtilis BS168 WT wild type; read-out: MIC. A digest of the protocol:
as §2

For the next assay, the system named is EC882 E. coli imp. Kind of assay: broth dilution MIC, E. coli EC882. As to conditions: Escherichia coli. A digest of the protocol: as §2
The subject of assay [5] is Spn1509 S. pneumoniae ermB positive mefA negative. Kind of assay: broth dilution MIC, S. pneumoniae Spn1509. As to conditions: Streptococcus pneumoniae; Spn1509 S. pneumoniae ermB positive mefA negative; read-out: MIC.
Description: as §1

In a further assay the test system is EC878 E. coli tolC. Kind of assay: broth dilution MIC, E. coli EC878. As to conditions: Escherichia coli. In short, it runs like this: as §2
Assay [6] deals with SA557 S. aureus ermA unknown msrA positive. Kind of assay: broth dilution MIC, S. aureus SA557. As to conditions: Staphylococcus aureus; SA557 S. aureus ermA unknown msrA positive; read-out: MIC.
Description: as §1

A further assay concerns BS1725 B. subtilis ermC. Nature of the assay: broth dilution MIC, B. subtilis BS1725. As to conditions: Bacillus subtilis, BS1725 B. subtilis ermC (+ery). In short, it runs like this:
as §2

For assay [7], the system named is Spn160 S. pneumoniae ermB unknown mefA positive. Nature of the assay: broth dilution MIC, S. pneumoniae Spn160. As to conditions: Streptococcus pneumoniae; Spn160 S. pneumoniae ermB unknown mefA positive; read-out: MIC.
Description: as §1

For assay [8], the system named is Spn1537 S. pneumoniae ermB positive mefA positive. Kind of assay: broth dilution MIC, S. pneumoniae Spn1537. As to conditions: Streptococcus pneumoniae.
Description: as §1

Assay [9] has as its system Spn1533 S. pneumoniae ermB positive mefA positive. Nature of the assay: broth dilution MIC, S. pneumoniae Spn1533. As to conditions: Streptococcus pneumoniae.
Description: as §1

Assay [10] concerns SA183 S. aureus ermA positive msrA unknown. Kind of assay: broth dilution MIC, S. aureus SA183. As to conditions: Staphylococcus aureus.
Description: as §1

In assay [11] the test system is Spn1427 S. pneumoniae ermB positive mefA negative. Nature of the assay: broth dilution MIC, S. pneumoniae Spn1427. As to conditions: Streptococcus pneumoniae.
Description: as §1

The next assay has as its system EC107 E. coli ATCC25922. Kind of assay: broth dilution MIC, E. coli EC107. As to conditions: Escherichia coli, read-out: MIC. A digest of the protocol: as §2
Assay [12] has as its system SA1708 S. aureus ermA positive msrA negative. Nature of the assay: broth dilution MIC, S. aureus SA1708. As to conditions: Staphylococcus aureus.
Description: as §1

The subject of assay [13] is SA506 S. aureus ermA positive msrA unknown. Kind of assay: broth dilution MIC, S. aureus SA506. As to conditions: Staphylococcus aureus.
Description: as §1

In assay [14] the test system is HI175 H. influenzae ATCC49247. Nature of the assay: broth dilution MIC, H. influenzae HI175. As to conditions: Haemophilus influenzae.
Description: as §1

Assay [15] deals with Spn 106 S. pneumonia ATCC49619. Kind of assay: broth dilution MIC, S. pneumoniae Spn 106. As to conditions: Streptococcus pneumoniae; Spn 106 S. pneumonia ATCC49619; read-out: MIC.
Description: as §1

A further assay concerns E. coli (MC4100). Kind of assay: MIC, E. coli MC4100. As to conditions: Escherichia coli, round 2, read-out: MIC.
Description: as §1

A further assay deals with H. influenzae strains. Nature of the assay: MIC against H. influenzae strains (Table M8). As to conditions: Haemophilus influenzae. In short, it runs like this:
as §2

A further assay has as its system S. pneumoniae strains. Nature of the assay: MIC against S. pneumoniae strains (Tables M7, M8). As to conditions: Streptococcus pneumoniae. The source says:
CLSI standard procedures for broth dilution MIC determination were used. […] These genotypes can be constitutive or inducible.

For the next assay, the system named is A. baumannii strains. Nature of the assay: MIC against A. baumannii strains (Table M8). As to conditions: Acinetobacter baumannii, BAA747, A. baumannii BAA747-1.
Another assay relates to E. faecalis strains. Nature of the assay: MIC against E. faecalis strains (Table M8). As to conditions: Enterococcus faecalis, E. faecalis 29212.
Another assay deals with E. coli strains. Nature of the assay: MIC against E. coli strains (Table M7). As to conditions: Escherichia coli, ATCC25922, E. coli ATCC 25922. A digest of the protocol:
as §2

The subject of a further assay is S. aureus strains. Nature of the assay: MIC against S. aureus strains (Table M7). As to conditions: Staphylococcus aureus. In short, it runs like this:
as §2

The test system of assay [16] is S. aureus (Newman, clinical isolate). Kind of assay: MIC, S. aureus Newman. As to conditions: Staphylococcus aureus, S. aureus (Neuman, clinical isolate), round 2.
Description: as §1

In the next assay the test system is K. pneumoniae strains. Nature of the assay: MIC against K. pneumoniae strains (Table M8). As to conditions: Klebsiella pneumoniae, K. pneumoniae 10031.
[17] abbreviates: H. influenzae 49247, read-out: MIC H. influenzae (49247).
The mark [18] stands for this setting: H. influenzae 49766, read-out: MIC H. influenzae (49766).
Setting [19] is: S. pneumoniae 160, read-out: MIC S. pneumonae (160).
Where [20] appears, read: S. pneumoniae 1509, read-out: MIC S. pneumoniae (1509).
Setting [21] is: S. pneumoniae 1533, read-out: MIC S. pneumoniae (1533).
The mark [22] stands for this setting: S. pneumoniae 1537, read-out: MIC S. pneumoniae (1537).
Where [23] appears, read: S. pneumoniae 49619, read-out: MIC S. pneumoniae (49619).
Setting [24] is: ATCC29213, S. aureus ATCC 29213, read-out: MIC S. aureus (ATCC 29213).
Setting [25] is: S. aureus 506, read-out: MIC S. aureus (506).
[26] abbreviates: S. aureus 1708, read-out: MIC S. aureus (1708).
Setting [27] is: USA300, S. aureus USA300, read-out: MIC S. aureus (USA300).

`CC[C@H]1OC(=O)C(C)(F)C(=O)[C@@H](C)[C@@H](O[C@@H]2OC(C)CC(N(C)C)C2O)[C@](C)(OC)C[C@@H](C)CN[C@H](C)[C@H]2N(CCCCn3cc(-c4nccs4)nn3)C(=O)O[C@]12C` (some centres unmarked) [FSM-20721]: the MIC is 16 µg/mL (≈ 19.1 µM) in assay [1]; 8 µg/mL (≈ 9.55 µM) in assay [2]; 16 µg/mL (≈ 19.1 µM) in assay [3]; 8 µg/mL (≈ 9.55 µM) in assay [4]; 0.25 µg/mL (≈ 0.298 µM) in the assay with EC882 E. coli imp; 8 to 16 µg/mL (≈ 9.55 to 19.1 µM) in assay [5]. Besides, the MIC in the assay with EC878 E. coli tolC was 1 µg/mL (≈ 1.19 µM); in assay [6], 16 µg/mL (≈ 19.1 µM); in the assay with BS1725 B. subtilis ermC, over 32 µg/mL; in assay [7], 0.5 to 1 µg/mL (≈ 0.597 to 1.19 µM); in assay [8], over 32 µg/mL; in [9], over 32 µg/mL. Also, the MIC in assay [10] is over 32 µg/mL; in [11], over 32 µg/mL; in the assay with EC107 E. coli ATCC25922 it was over 32 µg/mL; in assay [12], 16 µg/mL (≈ 19.1 µM); in [13], over 32 µg/mL; in assay [14], 8 to 32 µg/mL (≈ 9.55 to 38.2 µM). For the same molecule, the MIC in [15] was 0.125 to 0.25 µg/mL (≈ 0.149 to 0.298 µM).

As for `CC[C@H]1OC(=O)CC(=O)[C@H](C)[C@@H](O[C@@H]2OC(C)CC(N(C)C)C2O)[C@](C)(OC)C[C@@H](C)CN[C@H](C)[C@H]2N(CCCCn3cc(-c4cccc(N)c4)nn3)C(=O)O[C@]12C` (some centres unmarked) [FSM-56133], the MIC is 8 µg/mL (≈ 9.83 µM) in the assay with E. coli (MC4100); 1 µg/mL (≈ 1.23 µM) in the assay with H. influenzae strains (setting [17]); 4 µg/mL (≈ 4.91 µM) in the assay on H. influenzae strains (setting [18]); 0.5 µg/mL (≈ 0.614 µM) in the assay on S. pneumoniae strains (setting [19]); over 32 µg/mL in the assay with S. pneumoniae strains (setting [20]); over 32 µg/mL in the assay on S. pneumoniae strains (setting [21]). In addition, the MIC in the assay on S. pneumoniae strains (setting [22]) was over 32 µg/mL; in the assay on S. pneumoniae strains (setting [23]), 1 µg/mL (≈ 1.23 µM); in the assay with A. baumannii strains, 32 µg/mL (≈ 39.3 µM); in the assay on E. faecalis strains it was 0.5 µg/mL (≈ 0.614 µM); with E. coli strains, 8 µg/mL (≈ 9.83 µM); in the assay on S. aureus strains (setting [24]), 4 µg/mL (≈ 4.91 µM). Further, the MIC with S. aureus strains (setting [25]) is over 32 µg/mL; in the assay on S. aureus strains (setting [26]), 4 µg/mL (≈ 4.91 µM); in the assay with S. aureus strains (setting [27]) it was 8 µg/mL (≈ 9.83 µM); in [16] it was 4 µg/mL (≈ 4.91 µM); with K. pneumoniae strains, 2 µg/mL (≈ 2.46 µM).

As to `C=CC[C@H]1C(=O)O[C@H](CC)[C@@]2(C)OC(=O)N(CCCCn3cc(-c4cccc(N)c4)nn3)[C@@H]2[C@@H](C)NC[C@H](C)C[C@@](C)(OC)[C@H](O[C@@H]2OC(C)CC(N(C)C)C2O)[C@@H](C)C1=O` (some centres unmarked) [FSM-56156], the MIC in the assay on E. coli (MC4100) was 4 µg/mL (≈ 4.68 µM); in the assay on H. influenzae strains (setting [17]) it was 2 µg/mL (≈ 2.34 µM); with H. influenzae strains (setting [18]) it was 8 µg/mL (≈ 9.37 µM); with S. pneumoniae strains (setting [19]), 0.25 µg/mL (≈ 0.293 µM); with S. pneumoniae strains (setting [20]), 8 µg/mL (≈ 9.37 µM); with S. pneumoniae strains (setting [21]), over 32 µg/mL. Moreover, the MIC with S. pneumoniae strains (setting [22]) was over 32 µg/mL; in the assay on S. pneumoniae strains (setting [23]), 1 µg/mL (≈ 1.17 µM); in the assay on A. baumannii strains it was 32 µg/mL (≈ 37.5 µM); against E. faecalis strains, 1 µg/mL (≈ 1.17 µM); against E. coli strains, 16 µg/mL (≈ 18.7 µM); with S. aureus strains (setting [24]), 4 µg/mL (≈ 4.68 µM). The MIC with S. aureus strains (setting [25]) is over 32 µg/mL; in the assay on S. aureus strains (setting [26]), 4 µg/mL (≈ 4.68 µM); with S. aureus strains (setting [27]), 8 µg/mL (≈ 9.37 µM); in [16], 2 µg/mL (≈ 2.34 µM); with K. pneumoniae strains, 4 µg/mL (≈ 4.68 µM).
